Test results reported in PubChem BioAssay AID1508612.

Assay: passive permeability, PAMPA, ADME assay (AID 1508612)
Conditions: pH 7.4, 30.0 min, 50.0 µM

| Papp | SMILES |
| --- | --- |
| 540 ×10⁻⁶ cm/s | Cc1ccc(C(=O)Nc2nc(-c3ccccn3)cs2)cc1S(=O)(=O)N1CCOCC1 |
| 1.15 ×10⁻⁶ cm/s | O=S(=O)(Nc1nccs1)c1ccc(NCc2cccc(O)c2)cc1 |
| 83.2 ×10⁻⁶ cm/s | O=C(Nc1nc(-c2ccccc2)cs1)c1ccncc1NS(=O)(=O)c1cccs1 |
| < 1 ×10⁻⁶ cm/s | CCc1ccc(NC(=O)c2[nH]c(C)c(C(C)=O)c2C)cc1S(=O)(=O)Nc1ccc(Br)cc1 |
| 110 ×10⁻⁶ cm/s | Fc1cc(Nc2nc(-c3ccncc3)nc3ccccc23)ccc1N1CCCC1 |
| 905 ×10⁻⁶ cm/s | CNc1nccc(-c2cccc3ccccc23)n1 |
| 288 ×10⁻⁶ cm/s | CN(Cc1ccccc1)C(=O)c1ccc(S(=O)(=O)Nc2ccccc2)cc1 |
| 1.1 ×10⁻⁶ cm/s | O=C(Nc1ccccc1)C1CC(=O)N(c2n[nH]c3cc(Br)ccc23)C1 (stereo not given) |
| 2.4 ×10⁻⁶ cm/s | Cc1ccc(S(=O)(=O)Nc2ccc(Br)cc2C(=O)Nc2nc(-c3ccccc3)cs2)cc1 |
| 68 ×10⁻⁶ cm/s | Cn1c(=O)cc(C(=O)NC2CCCc3c2[nH]c2c(Cl)cccc32)c2ccccc21 (stereo not given) |
| > 1000 ×10⁻⁶ cm/s | Cc1ccc(S(=O)(=O)Nc2ccccc2C(=O)Nc2nc(-c3ccccc3)cs2)cc1 |
| > 1000 ×10⁻⁶ cm/s | O=C(Nc1nc(-c2ccccc2)cs1)c1ccncc1NS(=O)(=O)c1ccc2c(c1)CCC2 |
| > 1000 ×10⁻⁶ cm/s | Cc1cc(NC(=O)c2ccc(NC(=O)Cc3ccc(Cl)c(Cl)c3)cc2)no1 |
| < 1 ×10⁻⁶ cm/s | O=C(Nc1ccc(S(=O)(=O)Nc2nc(-c3ccccc3)cs2)cc1)c1ccc2ccccc2c1 |
| 134 ×10⁻⁶ cm/s | C=CCc1cccc(CNc2ccc(S(=O)(=O)Nc3nccs3)cc2)c1O |
| 674 ×10⁻⁶ cm/s | COc1cccc(CC(=O)Nc2nc(-c3ccc4c(c3)CCN4C(=O)c3ccccc3C)c(C)s2)c1 |
| 8.1 ×10⁻⁶ cm/s | CCOc1ccccc1C(=O)Nc1cccnc1C(=O)Nc1cccc(S(=O)(=O)C(F)(F)F)c1 |
| 99.5 ×10⁻⁶ cm/s | CCOc1ccccc1C(=O)Nc1ccncc1C(=O)Nc1cccc(S(=O)(=O)C(F)(F)F)c1 |
| 71.2 ×10⁻⁶ cm/s | Cc1ccc(S(=O)(=O)Nc2cncc(C(=O)Nc3nc(-c4ccccc4)cs3)c2)cc1 |
| 25.8 ×10⁻⁶ cm/s | COc1cccc(CNc2ccc(S(=O)(=O)Nc3nc(C)c(C)s3)cc2)c1O |

| Papp | SMILES |
| --- | --- |
| 5.92 ×10⁻⁶ cm/s | Cc1ccc(S(=O)(=O)Nc2cnccc2C(=O)Nc2nc(-c3ccc(-c4ccccc4)cc3)cs2)cc1 |
| 3 ×10⁻⁶ cm/s | O=C(c1cnccn1)N1CCC2(CCCN(C(c3ccccc3)c3ccccc3)C2)CC1 |
| 1.7 ×10⁻⁶ cm/s | O=C1CCCc2cc(S(=O)(=O)Nc3cnccc3C(=O)Nc3nc(-c4ccccc4)cs3)ccc2N1 |
| 641 ×10⁻⁶ cm/s | CC(Nc1ccc([S+](=O)([O-])Nc2nccs2)cc1)c1ccccc1 (stereo not given) |
| > 1000 ×10⁻⁶ cm/s | CC(=O)Nc1cccc(-c2csc(Nc3cc(C)ccn3)n2)c1 |
| 392 ×10⁻⁶ cm/s | CCN(C(=O)C(NS(=O)(=O)c1ccc(Br)s1)c1ccccc1)c1ccc(C)c(C)c1 (stereo not given) |
| > 1000 ×10⁻⁶ cm/s | Nc1c(S(=O)(=O)c2cccs2)c2nc3ccccc3nc2n1Cc1ccccc1 |
| 475 ×10⁻⁶ cm/s | Cc1ccc(S(=O)(=O)Nc2cnccc2C(=O)Nc2nc3ccccc3s2)cc1 |
| > 1000 ×10⁻⁶ cm/s | COc1cccc(-c2csc(NC(=O)c3ccncc3NS(=O)(=O)c3ccc(C)cc3)n2)c1 |
| 19.5 ×10⁻⁶ cm/s | Fc1ccc(-c2ccc(Nc3nc(-c4ccncc4)nc4ccccc34)cc2F)c(F)c1 |
| > 1000 ×10⁻⁶ cm/s | CC1CN(c2ccc(Nc3nc(-c4ccncc4)nc4ccccc34)cc2F)CC(C)O1 (stereo not given) |
| 3.49 ×10⁻⁶ cm/s | O=C(O)c1ccccc1C(=O)Nc1ccc(-c2ccccc2)cc1 |
| 291 ×10⁻⁶ cm/s | Cc1ccc(Nc2nc(C)c(NC(=O)c3ccc(C)cc3)c(Nc3ccc(C)cc3)n2)cc1 |
| 953 ×10⁻⁶ cm/s | NC(=O)C1CCN(c2nc(-c3ccc(Oc4ccccc4)cc3)cs2)CC1 |
| > 1000 ×10⁻⁶ cm/s | Fc1cccc(F)c1Nc1nc(-c2ccncc2)nc2ccccc12 |
| > 1000 ×10⁻⁶ cm/s | Oc1ccc(CN2CC(CNc3ccccc3)C3(C2)CN(c2ccccc2)C3)cc1 (stereo not given) |
| > 1000 ×10⁻⁶ cm/s | CC(C)n1cc(-c2ccc(Oc3ccccc3)cc2)c2c(N)ncnc21 |
| 6.3 ×10⁻⁶ cm/s | O=C(Nc1ccc(S(=O)(=O)Nc2nccs2)cc1)c1cc(-c2ccccc2)nc2ccccc12 |
| < 1 ×10⁻⁶ cm/s | Cc1ccc(S(=O)(=O)Nc2cccc(C(=O)Nc3nc(-c4ccccc4)cs3)c2Cl)cc1 |

Continued, compound first:

| SMILES | Papp |
| --- | --- |
| CCc1ccc(C2N=C(N)Nc3nc4ccccc4n32)cc1 (stereo not given) | 4.65 ×10⁻⁶ cm/s |
| Cc1ccc(C(N)=O)cc1Nc1nccc(-c2cn(C(C)C)c3cnccc23)n1 | 877 ×10⁻⁶ cm/s |
| c1cc(OCCN2CCCCC2)cc(-c2n[nH]c3ccc(-c4ncn[nH]4)cc23)c1 | < 1 ×10⁻⁶ cm/s |
| C=CCc1ccc(O)c(-c2ccc(O)c(CC=C)c2)c1 | > 1000 ×10⁻⁶ cm/s |
| C[C@@H]1CN(CC(=O)N2CC(C)(C)c3ncc(Cc4ccc(F)cc4)cc32)[C@@H](CN2CCOC[C@H]2C)CN1 | > 1000 ×10⁻⁶ cm/s |
| Cc1ccnc(NC(=S)N2CCN(c3cccc(C(F)(F)F)c3)CC2)c1 | > 1000 ×10⁻⁶ cm/s |
| COc1ccc(C2c3c(oc4ccc(C)cc4c3=O)C(=O)N2CCCN2CCOCC2)cc1OC (stereo not given) | 403 ×10⁻⁶ cm/s |
| COCCOc1cnc2ccn([C@H](C)c3nnc4c(F)cc(-c5cnn(C)c5)cn34)c(=O)c2c1 | 15.1 ×10⁻⁶ cm/s |
| Cc1ccc(C(=O)NC2CCN(c3cnn(CC4CC4)c(=O)c3)CC2)cc1C | 473 ×10⁻⁶ cm/s |
| Cc1cccc(N2CCN(C(=O)Cn3ncc4c3-c3ccccc3OC4)CC2)c1C | 676 ×10⁻⁶ cm/s |
| CC(C)Oc1ccc(CNC(=O)C2CCN(C(=O)N3CCOc4ccc(Cl)cc43)CC2)cc1 | 451 ×10⁻⁶ cm/s |
| Cc1ccc(N2CCN(c3cnn(-c4nc5ccccc5s4)c(=O)c3Cl)CC2C)cc1 (stereo not given) | 317 ×10⁻⁶ cm/s |
| Cc1ccc(NC(=O)Nc2cc3c(cc2N2CCCCC2)n(C)c(=O)n3C)cc1Cl | 8 ×10⁻⁶ cm/s |
| Cc1ccc(NC(=O)N2CCN(c3nc(N)nc4sc(-c5cccnc5)nc34)CC2)cc1 | 577 ×10⁻⁶ cm/s |
| O=C(Nc1cc(C(F)(F)F)ccc1N1CCOCC1)c1n[nH]c(=O)c2ccccc12 | 53.5 ×10⁻⁶ cm/s |
| CC(C)c1cc(C(=O)N2CC[C@@H](NC(=O)C3CC3)C2)n[nH]1 | 1.3 ×10⁻⁶ cm/s |
| C#CCNC(=O)c1nc(-c2ccc([S+](C)(=O)[O-])cc2)c2cnccn12 | < 1 ×10⁻⁶ cm/s |
| NC(=O)C1CCN(c2nc(-c3ccccc3[N+](=O)[O-])cs2)CC1 | 109 ×10⁻⁶ cm/s |
| CCc1cc(Cl)c(OC)c(C(=O)NC[C@@H]2CCCN2CC)c1O | > 1000 ×10⁻⁶ cm/s |
| O=C(c1cnn(-c2cccc(F)c2)c1-n1cccc1)N1CCN(c2ccccc2F)CC1 | > 1000 ×10⁻⁶ cm/s |
| CC(C)Oc1cccc(-c2ccnc(N3CCC(C(N)=O)CC3)n2)c1 | > 1000 ×10⁻⁶ cm/s |
| c1ccc(C2=Nn3c(nnc3-c3ccncc3)SC2)cc1 | 195 ×10⁻⁶ cm/s |

| SMILES | Papp |
| --- | --- |
| COc1ccc(-c2cn[nH]c2-c2ccc(OC)cc2)cc1 | > 1000 ×10⁻⁶ cm/s |
| O=C(c1nc(-c2ccc(Cl)cc2Cl)c2cnccn12)N1CCOCC1 | > 1000 ×10⁻⁶ cm/s |
| O=[S+]([O-])(Nc1ccc(C2CCNCC2)cc1)c1ccc(NCc2ccc(Br)cc2O)cc1 | 6.3 ×10⁻⁶ cm/s |
| Fc1ccc(N2CCCN(CC3[C@H]4CNC[C@@H]34)CC2)cc1 (stereo not given in full) | 196 ×10⁻⁶ cm/s |
| COCCNc1ncc(-c2cccc(O)c2)c2c1OCC2 | 412 ×10⁻⁶ cm/s |
| CN(C)C(=O)c1nc(-c2ccc(Cl)cc2Cl)c2cnccn12 | > 1000 ×10⁻⁶ cm/s |
| CN(C)c1cccc(-c2cnc(Nc3cccnc3)c3c2CCO3)c1 | > 1000 ×10⁻⁶ cm/s |
| COc1ccc(NC(=O)c2[nH]c(C)c(C(C)=O)c2C)cc1S(=O)(=O)N(C)C | 329 ×10⁻⁶ cm/s |
| NC(=O)C1CCN(c2nc(-c3ccc(Br)cc3)cs2)CC1 | 241 ×10⁻⁶ cm/s |
| COC(=O)c1ccc2c(C(=Nc3ccc(N(C)C(=O)CN4CCN(C)CC4)cc3)c3ccccc3)c(O)[nH]c2c1 | 12.5 ×10⁻⁶ cm/s |
| COc1ccc(-c2ccc3ncc(Nc4cccnc4OC)n3n2)cn1 | > 1000 ×10⁻⁶ cm/s |
| CN1CC=C(c2nc(Nc3ccc(F)c(F)c3)c3ccccc3n2)CC1 | > 1000 ×10⁻⁶ cm/s |
| COCCNC(=O)c1ccc(-c2ccc(N3CCCCC3)nc2)cc1 | > 1000 ×10⁻⁶ cm/s |
| Fc1ccc(CNc2ncnc3onc(-c4ccc(F)cc4)c23)cc1 | > 1000 ×10⁻⁶ cm/s |
| CCS(=O)(=O)c1nc(-c2ccc(Cl)cc2)cc(C(F)(F)F)n1 | 975 ×10⁻⁶ cm/s |
| CC(C)CC(=O)Nc1n[nH]c2c1CN(C(=O)C1CCN(C)CC1)C2(C)C | < 1 ×10⁻⁶ cm/s |
| COC(=O)CNC(=O)c1nc(-c2ccc(Cl)cc2Cl)c2cnccn12 | > 1000 ×10⁻⁶ cm/s |
| CCN(CC)C(=O)N1c2ccccc2C=Cc2ccccc21 | > 1000 ×10⁻⁶ cm/s |
| O=c1[nH]c(C2CCN(CC3CCCCC3)CC2)nn1Cc1ccccc1 | < 1 ×10⁻⁶ cm/s |
| CCCCOc1ccc(CNC(=O)c2cc3n(n2)CCCN(Cc2ccc(C)cc2)C3=O)cc1 | < 1 ×10⁻⁶ cm/s |
| CCN1CCN(c2ncc3c(n2)CCN(Cc2cc(Br)cs2)C3)CC1 | 787 ×10⁻⁶ cm/s |
| COc1cc2c(Oc3ccc(-c4cnc(Nc5ccc(F)cc5)n(C)c4=O)cc3F)ccnc2cc1OCCCN1CCOCC1 | 92.9 ×10⁻⁶ cm/s |

| SMILES | Papp |
| --- | --- |
| NCC(=O)Nc1cncc(-c2nn3c(=O)cc(N4CCNCC4)nc3s2)c1 | < 1 ×10⁻⁶ cm/s |
| Cc1noc(C)c1-c1ccc2ncnc(NC(C)c3ccccc3)c2c1 (stereo not given) | > 1000 ×10⁻⁶ cm/s |
| COc1ccc(NC(=O)c2c(C)cccc2C)cc1[S+](=O)([O-])N1CCCCCC1 | 738 ×10⁻⁶ cm/s |
| CCc1ccc(CNc2ccc3c(c2)ncn3C(C)(C)C)cc1 | > 1000 ×10⁻⁶ cm/s |
| COc1cccc(CNCCSc2nnnn2C)c1OCc1ccc(Cl)cc1Cl | > 1000 ×10⁻⁶ cm/s |
| NC(=O)C1CCN(c2nc(-c3ccc(OC(F)(F)F)cc3)cs2)CC1 | 104 ×10⁻⁶ cm/s |
| COc1ccc(-c2ccc3ncc4c(c3c2)n(-c2ccc(N3CCNCC3)c(C(F)(F)F)c2)c(=O)n4C)cn1 | < 1 ×10⁻⁶ cm/s |
| COc1ccc2c3c([nH]c2c1)C1CC2C(CC(O)C(OC)C2CO)CN1CC3 (stereo not given) | 3.2 ×10⁻⁶ cm/s |
| CCN(CC)[S+](=O)([O-])c1cc(NC(=O)c2[nH]c(C)c(C(C)=O)c2C)ccc1OC | 645 ×10⁻⁶ cm/s |
| Cc1ccnc(NC(=S)N2CCN(c3ccccc3C(F)(F)F)CC2)c1 | 726 ×10⁻⁶ cm/s |
| COCC(C)Nc1ncnc2c1cnn2-c1ccc(C)c(C)c1 (stereo not given) | 690 ×10⁻⁶ cm/s |
| CN(C)c1cccc(-c2ncnc(N3CCC(C(N)=O)CC3)n2)c1 | 244 ×10⁻⁶ cm/s |
| O=C1CCc2cc(S(=O)(=O)Nc3ccc(F)c(Cl)c3)c(F)cc2N1 | 861 ×10⁻⁶ cm/s |
| COc1ccc(-n2c(C)cc(C3=NNC(=NC4CC4)SC3)c2C)cc1 | 610 ×10⁻⁶ cm/s |
| Cc1ccc(CN2C(=O)C(O)(CC(=O)c3ccc(C)cc3)c3ccccc32)cc1 (stereo not given) | 802 ×10⁻⁶ cm/s |
| Cc1ccc2nc(-c3cc(NC(=O)c4ccc5c(c4)OCCO5)ccc3Cl)oc2c1 | 144 ×10⁻⁶ cm/s |
| Cc1noc(C)c1CN1CCNc2cc(Nc3ccccc3)ncc2C1 | 978 ×10⁻⁶ cm/s |
| Cc1cc(-c2nnc3n2CCCCC3)c(C)n1-c1ccc(C#N)cc1 | 215 ×10⁻⁶ cm/s |
| S=C(NCCCc1cnc[nH]1)NCCCN(Cc1ccc(Cl)c(Cl)c1)c1ccc(Br)cn1 | 14 ×10⁻⁶ cm/s |
| COc1cccc(N2CCN(c3ncc4c(n3)CCN(Cc3ccc(Br)cc3)C4)CC2)c1 | 25 ×10⁻⁶ cm/s |
| CCOC(=O)[C@H]1O[C@H]1C(=O)N[C@@H](CC(C)C)C(=O)NCCC(C)C | 89 ×10⁻⁶ cm/s |
| Cc1ccnc(C)c1C(=O)Nc1cccc([S+](=O)([O-])N(C)C)c1 | 98.5 ×10⁻⁶ cm/s |
